# Measured values taken from patent US8445451B2, “Macrolides and uses of macrolides” (Basilea Pharmaceutica AG, priority 2008, dated 2013).
# Tested on: T1, human PDE4
# T1 construct: PDE4 is partially purified from undifferentiated human monocytic cells (U-937) according to Thorpy et al. 1992 (J. Pharmacol. Exp. Ther. 263: 1195)
# Assay: IMAP FP in vitro enzymatic PDE4 inhibition assay
# Assay type: biochemical
# Details: for IC50: PDE4 partially purified from human monocytic U-937 cells, 90 minutes at room temperature, fluorescence polarization
# Procedure: PDE4 specifically hydrolyzes cAMP and releases the product AMP. The potency of PDE inhibition by said agents is determined in an in vitro enzymatic assay. The assay is commercially available (IMAP™ FP assay Molecular Devices Corp.(MDS)) and is optimized for the use of human PDE4. Fluorescently labeled cAMP is hydrolyzed by PDE4 and in a second step, binding of labeled product to a large binding partner allowed product detection by fluorescence polarization (FP) measurements.
# PDE4 is partially purified from undifferentiated human monocytic cells (U-937) according to Thorpy et al. 1992 (J. Pharmacol. Exp. Ther. 263: 1195). […] In addition, PDE4 preparations are validated by inhibition studies with PDE4-specific and unspecific PDE inhibitors.
# Stock solutions of test compounds are made in DMSO and diluted in assay buffer (10 mM Tris-HCl, 10 mM MgCl2, 0.1% BSA 0.05% NaN3, pH 7.2) to the desired concentrations. The solutions used in the assay contained test compound in assay buffer with 2% DMSO.
# 10 μl of substrate (at a concentration recommended by the manufacturer) are mixed with 5 μl of appropriately diluted PDE and 5 μl of test compound solution. 5 μl of reaction buffer with 2% DMSO are used for control reactions. […] After incubation for 90 minutes at room temperature, 60 μl of binding reagent are added as specified by the manufacturer. Binding is allowed to proceed for 30 minutes and fluorescence polarization is measured. Dose dependence of PDE inhibition is measured by assaying dilution series of test compounds in duplicates. IC50 values are determined from the measured activities by curve fitting.
Compound,IC50 [nM],PDE4-inhibiting activity (up to a concentration of 50 μM in the assay used in the examples)
CCC1OC(=O)C(C)C(OC2CC(C)(OC)C(O)C(C)O2)C(C)C(OC2OC(C)CC(N(C)C)C2O)C(C)(OC)CC(C)C(=O)C(C)C2C(SCCn3c(CCc4cccnc4)nc4c(N)ncnc43)C(=O)OC12C (stereo not drawn) [Example 1],13400,–
CC[C@H]1OC(=O)[C@H](C)[C@@H](O[C@H]2C[C@@](C)(OC)[C@@H](O)[C@H](C)O2)[C@H](C)[C@@H](O[C@@H]2O[C@H](C)C[C@H](N(C)C)[C@H]2O)[C@](C)(OC)C[C@@H](C)C(=O)[C@H](C)[C@H]2[C@H](SCCn3c(Nc4cccnc4)nc4c(N)ncnc43)C(=O)O[C@@]21C [Example 2],3900,–
CC[C@H]1OC(=O)[C@H](C)[C@@H](O[C@H]2C[C@@](C)(OC)[C@@H](O)[C@H](C)O2)[C@H](C)[C@@H](O[C@@H]2O[C@H](C)C[C@H](N(C)C)[C@H]2O)[C@](C)(OC)C[C@@H](C)C(=O)[C@H](C)[C@H]2[C@H](SCCN(C(=O)c3ccncc3)c3ccc(OC)c(OC4CCCC4)c3)C(=O)O[C@@]21C [Example 3],3400,–
CC[C@H]1OC(=O)[C@H](C)[C@@H](O[C@H]2C[C@@](C)(OC)[C@@H](O)[C@H](C)O2)[C@H](C)[C@@H](O[C@@H]2O[C@H](C)C[C@H](N(C)C)[C@H]2O)[C@](C)(OC)C[C@@H](C)C(=O)[C@H](C)[C@H]2[C@H](SCCN(Cc3ccncc3)c3ccc(OC)c(OC4CCCC4)c3)C(=O)O[C@@]21C [Example 4],280,–
CC[C@H]1OC(=O)[C@H](C)[C@@H](O[C@H]2C[C@@](C)(OC)[C@@H](O)[C@H](C)O2)[C@H](C)[C@@H](O[C@@H]2O[C@H](C)C[C@H](N(C)C)[C@H]2O)[C@](C)(OC)C[C@@H](C)C(=O)[C@H](C)[C@H]2[C@H](SCCN(Cc3cccnc3)c3ccc(OC)c(OC4CCCC4)c3)C(=O)O[C@@]21C [Example 5],850,–
CC[C@H]1OC(=O)[C@H](C)[C@@H](O[C@H]2C[C@@](C)(OC)[C@@H](O)[C@H](C)O2)[C@H](C)[C@@H](O[C@@H]2O[C@H](C)C[C@H](N(C)C)[C@H]2O)[C@](C)(OC)C[C@@H](C)C(=O)[C@H](C)[C@H]2[C@H](SCCNc3c(C(=O)Nc4c(Cl)cncc4Cl)cnc4c3cnn4CC)C(=O)O[C@@]21C [Example 6],370,–
CC[C@H]1OC(=O)[C@H](C)[C@@H](O[C@H]2C[C@@](C)(OC)[C@@H](O)[C@H](C)O2)[C@H](C)[C@@H](O[C@@H]2O[C@H](C)C[C@H](N(C)C)[C@H]2O)[C@](C)(OC)C[C@@H](C)C(=O)[C@H](C)[C@H]2[C@H](SCCCc3c(C(=O)Nc4ccncc4)ccc(OC)c3OC)C(=O)O[C@@]21C [Example 7],7600,–
CC[C@H]1OC(=O)[C@H](C)[C@@H](O[C@H]2C[C@@](C)(OC)[C@@H](O)[C@H](C)O2)[C@H](C)[C@@H](O[C@@H]2O[C@H](C)C[C@H](N(C)C)[C@H]2O)[C@](C)(OC)C[C@@H](C)C(=O)[C@H](C)[C@H]2[C@H](SCCCn3cnc4c(N)ncc(C(=O)Nc5ccncc5)c43)C(=O)O[C@@]21C [Example 8],4700,–
CC[C@H]1OC(=O)[C@H](C)[C@@H](O[C@H]2C[C@@](C)(OC)[C@@H](O)[C@H](C)O2)[C@H](C)[C@@H](O[C@@H]2O[C@H](C)C[C@H](N(C)C)[C@H]2O)[C@](C)(OC)C[C@@H](C)C(=O)[C@H](C)[C@H]2[C@H](SCCCn3cnc4c(N)ncc(C(=O)NCC(=O)OC)c43)C(=O)O[C@@]21C [Example 9],24200,–
CC[C@H]1OC(=O)[C@H](C)[C@@H](O[C@H]2C[C@@](C)(OC)[C@@H](O)[C@H](C)O2)[C@H](C)[C@@H](O[C@@H]2O[C@H](C)C[C@H](N(C)C)[C@H]2O)[C@](C)(OC)C[C@@H](C)C(=O)[C@H](C)[C@H]2[C@H](SCCn3cnc4c(N)ncc(C(=O)Nc5ccncc5)c43)C(=O)O[C@@]21C [Example 10],1000,–
CC[C@H]1OC(=O)[C@H](C)[C@@H](O[C@H]2C[C@@](C)(OC)[C@@H](O)[C@H](C)O2)[C@H](C)[C@@H](O[C@@H]2O[C@H](C)C[C@H](N(C)C)[C@H]2O)[C@](C)(OC)C[C@@H](C)C(=O)[C@H](C)[C@H]2[C@H](SCCn3cnc4c(N)ncc(C(=O)Nc5c(Cl)cncc5Cl)c43)C(=O)O[C@@]21C [Example 11],8,–
CC[C@H]1OC(=O)[C@H](C)[C@@H](O[C@H]2C[C@@](C)(OC)[C@@H](O)[C@H](C)O2)[C@H](C)[C@@H](O[C@@H]2O[C@H](C)C[C@H](N(C)C)[C@H]2O)[C@](C)(OC)C[C@@H](C)C(=O)[C@H](C)[C@H]2[C@H](SCCn3cnc4c(N)nc(NCc5cccnc5)nc43)C(=O)O[C@@]21C [Example 12],3800,–
CC[C@H]1OC(=O)[C@H](C)[C@@H](O[C@H]2C[C@@](C)(OC)[C@@H](O)[C@H](C)O2)[C@H](C)[C@@H](O[C@@H]2O[C@H](C)C[C@H](N(C)C)[C@H]2O)[C@](C)(OC)C[C@@H](C)C(=O)[C@H](C)[C@H]2[C@H](SCCn3cnc4c(N)nc(NCc5ccncc5)nc43)C(=O)O[C@@]21C [Example 13],2600,–
CC[C@H]1OC(=O)[C@H](C)[C@@H](O)[C@H](C)[C@@H](O[C@@H]2O[C@H](C)C[C@H](N(C)C)[C@H]2O)[C@](C)(OC)C[C@@H](C)C(=O)[C@H](C)[C@H]2[C@H](SCCn3cnc4c(N)ncc(C(=O)Nc5c(Cl)cncc5Cl)c43)C(=O)O[C@@]21C [Example 14],4.9,–
CC[C@H]1OC(=O)[C@H](C)C(=O)[C@H](C)[C@@H](O[C@@H]2O[C@H](C)C[C@H](N(C)C)[C@H]2O)[C@](C)(OC)C[C@@H](C)C(=O)[C@H](C)[C@H]2[C@H](SCCN(Cc3c(Cl)cncc3Cl)c3ccc(OC)c(OC4CCCC4)c3)C(=O)O[C@@]21C [Example 15],480,–
CC[C@H]1OC(=O)[C@H](C)[C@@H](O)[C@H](C)[C@@H](O[C@@H]2O[C@H](C)C[C@H](N(C)C)[C@H]2O)[C@](C)(OC)C[C@@H](C)C(=O)[C@H](C)[C@H]2[C@H](SCCNc3c(C(=O)Nc4c(Cl)cncc4Cl)cnc4c3cnn4CC)C(=O)O[C@@]21C [Example 16],110,–
CC[C@H]1OC(=O)[C@H](C)[C@@H](O[C@H]2C[C@@](C)(OC)[C@@H](O)[C@H](C)O2)[C@H](C)[C@@H](O[C@@H]2O[C@H](C)C[C@H](N(C)C)[C@H]2O)[C@](C)(OC)C[C@@H](C)C(=O)[C@H](C)[C@H]2[C@H](SC)C(=O)O[C@@]21C [reference compound],–,does not show any PDE4-inhibiting activity
CSCCn1cnc2c(N)ncc(C(=O)Nc3c(Cl)cncc3Cl)c21 [reference compound],3600,–
